{"source": "the kinase profiling compilation of Christmann-Franck et al. (2016)", "assay_in_all_cases": "radiometric filter-binding kinase assay, Kinase HotSpot", "settings_in_all_cases": "compound 0.5 µM; ATP 10 µM", "key": {"EPHA8 (human)": {"target": "EPHA8 (human) (UniProt P29322)"}, "NUAK1 (human)": {"target": "NUAK1 (human) (UniProt O60285)"}, "ACVR1 (human)": {"target": "ACVR1 (human) (UniProt Q04771)"}, "MELK (human)": {"target": "MELK (human) (UniProt Q14680)", "sequence (Q14680 whole entry, looked up)": "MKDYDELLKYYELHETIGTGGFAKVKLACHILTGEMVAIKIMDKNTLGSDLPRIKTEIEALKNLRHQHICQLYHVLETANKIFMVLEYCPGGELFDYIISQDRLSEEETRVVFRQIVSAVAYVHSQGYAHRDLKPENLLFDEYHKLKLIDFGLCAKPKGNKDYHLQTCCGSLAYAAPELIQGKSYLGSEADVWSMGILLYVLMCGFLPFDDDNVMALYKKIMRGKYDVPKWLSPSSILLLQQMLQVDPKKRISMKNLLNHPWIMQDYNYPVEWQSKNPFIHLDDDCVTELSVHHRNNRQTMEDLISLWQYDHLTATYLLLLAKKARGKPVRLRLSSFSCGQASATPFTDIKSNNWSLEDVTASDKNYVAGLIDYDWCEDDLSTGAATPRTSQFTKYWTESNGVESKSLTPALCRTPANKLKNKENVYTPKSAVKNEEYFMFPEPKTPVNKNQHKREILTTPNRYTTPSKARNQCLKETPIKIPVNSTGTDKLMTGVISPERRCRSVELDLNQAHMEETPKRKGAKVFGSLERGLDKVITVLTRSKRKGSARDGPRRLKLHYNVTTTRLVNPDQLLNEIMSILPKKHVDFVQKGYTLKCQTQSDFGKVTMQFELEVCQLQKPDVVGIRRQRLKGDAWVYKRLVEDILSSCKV"}, "CDK1 CCNA2 (human)": {"target": "CDK1 CCNA2 (human) (UniProt P06493+P20248)"}, "MAPK13 (human)": {"target": "MAPK13 (human) (UniProt O15264)"}, "MAP3K2 (human)": {"target": "MAP3K2 (human) (UniProt Q9Y2U5)"}, "[1]": {"system": "MAP2K6 (human), P52564 [S207E/T211E]"}, "ROS1 (human)": {"target": "ROS1 (human) (UniProt P08922)"}, "CSF1R (human)": {"target": "CSF1R (human) (UniProt P07333)"}, "EPHA4 (human)": {"target": "EPHA4 (human) (UniProt P54764)"}, "MERTK (human)": {"target": "MERTK (human) (UniProt Q12866)", "sequence (Q12866 whole entry, looked up)": "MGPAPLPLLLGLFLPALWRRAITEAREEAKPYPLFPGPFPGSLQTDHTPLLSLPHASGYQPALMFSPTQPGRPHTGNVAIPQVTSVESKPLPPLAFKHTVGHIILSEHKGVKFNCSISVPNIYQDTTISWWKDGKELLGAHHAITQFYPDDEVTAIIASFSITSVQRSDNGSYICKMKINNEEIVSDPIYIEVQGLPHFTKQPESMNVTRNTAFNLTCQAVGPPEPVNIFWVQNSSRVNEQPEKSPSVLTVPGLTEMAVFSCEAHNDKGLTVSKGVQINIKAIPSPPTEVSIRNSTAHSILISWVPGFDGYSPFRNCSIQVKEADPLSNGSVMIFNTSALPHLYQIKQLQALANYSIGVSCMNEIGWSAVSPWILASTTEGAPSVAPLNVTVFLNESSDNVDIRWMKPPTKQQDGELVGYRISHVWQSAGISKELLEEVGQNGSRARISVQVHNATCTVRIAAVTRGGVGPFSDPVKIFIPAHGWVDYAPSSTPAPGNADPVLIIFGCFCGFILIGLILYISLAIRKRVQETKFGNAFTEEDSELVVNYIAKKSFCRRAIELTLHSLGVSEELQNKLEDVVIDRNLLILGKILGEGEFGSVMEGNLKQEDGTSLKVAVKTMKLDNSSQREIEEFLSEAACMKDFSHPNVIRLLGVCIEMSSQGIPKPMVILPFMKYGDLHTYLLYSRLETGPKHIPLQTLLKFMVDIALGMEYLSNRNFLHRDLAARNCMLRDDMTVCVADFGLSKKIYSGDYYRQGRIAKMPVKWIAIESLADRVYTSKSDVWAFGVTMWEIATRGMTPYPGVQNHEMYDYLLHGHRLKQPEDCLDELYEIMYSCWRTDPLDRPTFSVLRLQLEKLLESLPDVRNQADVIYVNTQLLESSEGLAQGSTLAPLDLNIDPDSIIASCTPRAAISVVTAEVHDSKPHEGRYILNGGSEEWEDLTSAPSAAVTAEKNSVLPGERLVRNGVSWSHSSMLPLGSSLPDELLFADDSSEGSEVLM"}, "DYRK4 (human)": {"target": "DYRK4 (human) (UniProt Q9NR20)"}, "CHEK2 (human)": {"target": "CHEK2 (human) (UniProt O96017)"}, "PRKG2 (human)": {"target": "PRKG2 (human) (UniProt Q13237)"}, "PHKG1 (human)": {"target": "PHKG1 (human) (UniProt Q16816)"}, "MKNK2 (human)": {"target": "MKNK2 (human) (UniProt Q9HBH9)"}, "PRKCI (human)": {"target": "PRKCI (human) (UniProt P41743)"}, "INSRR (human)": {"target": "INSRR (human) (UniProt P14616)"}, "PLK1 (human)": {"target": "PLK1 (human) (UniProt P53350)"}, "MINK1 (human)": {"target": "MINK1 (human) (UniProt Q8N4C8)", "sequence (Q8N4C8 whole entry, looked up)": "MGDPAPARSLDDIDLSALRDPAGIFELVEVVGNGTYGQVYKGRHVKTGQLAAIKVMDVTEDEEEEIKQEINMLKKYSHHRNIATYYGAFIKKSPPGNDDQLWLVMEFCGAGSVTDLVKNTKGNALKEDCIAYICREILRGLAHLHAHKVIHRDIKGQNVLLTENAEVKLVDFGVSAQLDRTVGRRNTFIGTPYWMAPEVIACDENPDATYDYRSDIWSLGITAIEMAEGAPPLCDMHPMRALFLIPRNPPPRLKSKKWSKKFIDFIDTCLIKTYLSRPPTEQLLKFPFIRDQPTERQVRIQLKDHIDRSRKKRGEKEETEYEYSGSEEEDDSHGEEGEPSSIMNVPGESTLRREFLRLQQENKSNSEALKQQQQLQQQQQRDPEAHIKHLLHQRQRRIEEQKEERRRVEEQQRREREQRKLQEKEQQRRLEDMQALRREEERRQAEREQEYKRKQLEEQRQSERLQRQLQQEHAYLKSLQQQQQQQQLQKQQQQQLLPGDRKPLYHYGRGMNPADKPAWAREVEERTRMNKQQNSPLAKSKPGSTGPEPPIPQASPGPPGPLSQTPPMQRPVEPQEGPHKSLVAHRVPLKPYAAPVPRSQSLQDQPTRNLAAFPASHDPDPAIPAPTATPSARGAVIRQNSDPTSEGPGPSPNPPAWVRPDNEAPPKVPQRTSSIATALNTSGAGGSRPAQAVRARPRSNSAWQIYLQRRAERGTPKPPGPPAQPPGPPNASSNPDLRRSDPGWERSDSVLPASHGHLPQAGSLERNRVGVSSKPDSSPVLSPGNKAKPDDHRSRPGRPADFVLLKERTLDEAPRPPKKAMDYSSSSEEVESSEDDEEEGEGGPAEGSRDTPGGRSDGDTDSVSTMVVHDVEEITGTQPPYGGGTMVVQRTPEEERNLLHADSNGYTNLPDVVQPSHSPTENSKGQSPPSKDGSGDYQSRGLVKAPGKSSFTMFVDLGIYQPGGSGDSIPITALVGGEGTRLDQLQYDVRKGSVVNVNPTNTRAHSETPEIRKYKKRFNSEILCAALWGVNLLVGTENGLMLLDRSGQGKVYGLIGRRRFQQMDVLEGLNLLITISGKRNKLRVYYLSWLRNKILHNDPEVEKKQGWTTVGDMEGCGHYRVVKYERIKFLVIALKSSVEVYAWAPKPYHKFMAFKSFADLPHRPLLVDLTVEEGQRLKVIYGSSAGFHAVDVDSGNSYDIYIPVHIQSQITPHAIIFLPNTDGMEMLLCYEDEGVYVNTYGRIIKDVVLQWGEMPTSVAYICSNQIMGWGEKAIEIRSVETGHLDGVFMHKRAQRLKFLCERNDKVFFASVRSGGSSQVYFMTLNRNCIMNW"}, "FGFR4 (human)": {"target": "FGFR4 (human) (UniProt P22455)"}, "PLK3 (human)": {"target": "PLK3 (human) (UniProt Q9H4B4)"}, "HIPK1 (human)": {"target": "HIPK1 (human) (UniProt Q86Z02)"}, "MUSK (human)": {"target": "MUSK (human) (UniProt O15146)"}, "LTK (human)": {"target": "LTK (human) (UniProt P29376)"}, "PAK2 (human)": {"target": "PAK2 (human) (UniProt Q13177)", "sequence (Q13177 whole entry, looked up)": "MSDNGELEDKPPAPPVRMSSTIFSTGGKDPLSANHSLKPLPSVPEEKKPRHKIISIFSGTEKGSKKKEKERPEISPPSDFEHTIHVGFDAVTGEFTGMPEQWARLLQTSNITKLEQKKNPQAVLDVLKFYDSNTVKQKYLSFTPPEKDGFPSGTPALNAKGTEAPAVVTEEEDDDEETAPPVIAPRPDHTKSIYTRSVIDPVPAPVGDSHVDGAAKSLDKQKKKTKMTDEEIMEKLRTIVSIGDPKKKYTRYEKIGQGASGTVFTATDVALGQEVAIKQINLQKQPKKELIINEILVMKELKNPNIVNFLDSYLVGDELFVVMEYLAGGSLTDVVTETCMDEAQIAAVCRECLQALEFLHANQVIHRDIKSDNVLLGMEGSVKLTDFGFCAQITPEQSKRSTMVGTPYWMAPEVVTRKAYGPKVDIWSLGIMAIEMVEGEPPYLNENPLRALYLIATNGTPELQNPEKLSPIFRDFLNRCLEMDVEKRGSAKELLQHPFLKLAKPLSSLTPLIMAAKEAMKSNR"}, "CLK3 (human)": {"target": "CLK3 (human) (UniProt P49761)", "sequence (P49761 whole entry, looked up)": "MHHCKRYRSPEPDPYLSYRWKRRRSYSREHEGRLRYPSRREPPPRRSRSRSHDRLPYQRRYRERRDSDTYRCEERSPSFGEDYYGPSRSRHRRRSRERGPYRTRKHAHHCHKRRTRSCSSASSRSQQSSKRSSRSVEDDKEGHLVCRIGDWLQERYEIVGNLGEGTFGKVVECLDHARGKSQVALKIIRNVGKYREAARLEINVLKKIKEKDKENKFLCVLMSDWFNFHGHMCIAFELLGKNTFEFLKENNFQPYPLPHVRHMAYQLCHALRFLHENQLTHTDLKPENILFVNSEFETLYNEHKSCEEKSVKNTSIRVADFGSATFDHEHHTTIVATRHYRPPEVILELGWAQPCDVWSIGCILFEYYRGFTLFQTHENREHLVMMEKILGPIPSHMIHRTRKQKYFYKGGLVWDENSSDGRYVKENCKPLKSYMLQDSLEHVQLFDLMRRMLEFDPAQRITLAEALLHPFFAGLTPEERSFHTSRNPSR"}, "FES (human)": {"target": "FES (human) (UniProt P07332)"}, "TGFBR2 (human)": {"target": "TGFBR2 (human) (UniProt P37173)", "sequence (P37173 whole entry, looked up)": "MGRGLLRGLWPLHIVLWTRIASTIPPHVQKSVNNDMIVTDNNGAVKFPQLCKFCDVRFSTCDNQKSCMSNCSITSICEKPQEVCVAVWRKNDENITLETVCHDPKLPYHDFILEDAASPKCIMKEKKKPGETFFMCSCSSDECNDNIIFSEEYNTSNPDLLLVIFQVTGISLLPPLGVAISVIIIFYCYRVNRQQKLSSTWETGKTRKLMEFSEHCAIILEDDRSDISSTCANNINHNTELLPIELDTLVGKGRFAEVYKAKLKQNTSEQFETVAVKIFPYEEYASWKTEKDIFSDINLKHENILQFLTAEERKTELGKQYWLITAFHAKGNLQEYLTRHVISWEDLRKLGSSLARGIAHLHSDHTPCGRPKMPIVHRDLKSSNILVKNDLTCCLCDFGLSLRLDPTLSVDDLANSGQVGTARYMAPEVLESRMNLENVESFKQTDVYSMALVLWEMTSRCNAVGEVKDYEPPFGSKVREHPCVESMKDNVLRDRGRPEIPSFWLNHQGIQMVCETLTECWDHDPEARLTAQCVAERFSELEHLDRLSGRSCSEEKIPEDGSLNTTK"}, "MAP4K4 (human)": {"target": "MAP4K4 (human) (UniProt O95819)"}, "WNK3 (human)": {"target": "WNK3 (human) (UniProt Q9BYP7)"}, "HCK (human)": {"target": "HCK (human) (UniProt P08631)"}, "SRMS (human)": {"target": "SRMS (human) (UniProt Q9H3Y6)"}, "PRKCB1 (human)": {"target": "PRKCB1 (human) (UniProt P05771)"}, "CAMK2B (human)": {"target": "CAMK2B (human) (UniProt Q13554)"}, "DDR2 (human)": {"target": "DDR2 (human) (UniProt Q16832)"}, "PIM2 (human)": {"target": "PIM2 (human) (UniProt Q9P1W9)", "sequence (Q9P1W9 whole entry, looked up)": "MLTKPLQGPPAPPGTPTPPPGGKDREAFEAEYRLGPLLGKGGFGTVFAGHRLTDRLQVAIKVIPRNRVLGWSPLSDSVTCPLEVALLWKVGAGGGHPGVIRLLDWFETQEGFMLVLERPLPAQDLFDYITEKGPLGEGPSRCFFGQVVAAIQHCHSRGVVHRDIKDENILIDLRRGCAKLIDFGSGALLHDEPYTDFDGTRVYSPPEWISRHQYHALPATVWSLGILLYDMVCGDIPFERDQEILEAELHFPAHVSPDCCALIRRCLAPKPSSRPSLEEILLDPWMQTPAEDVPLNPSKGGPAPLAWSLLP"}, "PRKX (human)": {"target": "PRKX (human) (UniProt P51817)"}, "STK10 (human)": {"target": "STK10 (human) (UniProt O94804)"}, "EPHA2 (human)": {"target": "EPHA2 (human) (UniProt P29317)"}, "GSK3B (human)": {"target": "GSK3B (human) (UniProt P49841)"}}}
{"smiles": "Cc1cncc2cccc(S(=O)(=O)N3CCCN(C(=O)CN)C[C@H]3C)c12", "values": [{"measurement": "residual activity", "setting": "EPHA8 (human)", "value": 95, "unit": "%"}, {"measurement": "residual activity", "setting": "NUAK1 (human)", "value": 91.1, "unit": "%"}, {"measurement": "residual activity", "setting": "ACVR1 (human)", "value": 95.8, "unit": "%"}, {"measurement": "residual activity", "setting": "MELK (human)", "value": 83, "unit": "%"}, {"measurement": "residual activity", "setting": "CDK1 CCNA2 (human)", "value": 89.2, "unit": "%"}, {"measurement": "residual activity", "setting": "MAPK13 (human)", "value": 119, "unit": "%"}, {"measurement": "residual activity", "setting": "MAP3K2 (human)", "value": 92.1, "unit": "%"}, {"measurement": "residual activity", "setting": "[1]", "value": 107, "unit": "%"}, {"measurement": "residual activity", "setting": "ROS1 (human)", "value": 60.3, "unit": "%"}, {"measurement": "residual activity", "setting": "CSF1R (human)", "value": 95.6, "unit": "%"}, {"measurement": "residual activity", "setting": "EPHA4 (human)", "value": 99.9, "unit": "%"}, {"measurement": "residual activity", "setting": "MERTK (human)", "value": 95.4, "unit": "%"}, {"measurement": "residual activity", "setting": "DYRK4 (human)", "value": 90.3, "unit": "%"}, {"measurement": "residual activity", "setting": "CHEK2 (human)", "value": 96.2, "unit": "%"}, {"measurement": "residual activity", "setting": "PRKG2 (human)", "value": 88.1, "unit": "%"}, {"measurement": "residual activity", "setting": "PHKG1 (human)", "value": 65.3, "unit": "%"}, {"measurement": "residual activity", "setting": "MKNK2 (human)", "value": 83.8, "unit": "%"}, {"measurement": "residual activity", "setting": "PRKCI (human)", "value": 87.4, "unit": "%"}, {"measurement": "residual activity", "setting": "INSRR (human)", "value": 103, "unit": "%"}, {"measurement": "residual activity", "setting": "PLK1 (human)", "value": 101, "unit": "%"}, {"measurement": "residual activity", "setting": "MINK1 (human)", "value": 97.2, "unit": "%"}, {"measurement": "residual activity", "setting": "FGFR4 (human)", "value": 79.5, "unit": "%"}, {"measurement": "residual activity", "setting": "PLK3 (human)", "value": 98.4, "unit": "%"}, {"measurement": "residual activity", "setting": "HIPK1 (human)", "value": 99.1, "unit": "%"}, {"measurement": "residual activity", "setting": "MUSK (human)", "value": 88.7, "unit": "%"}, {"measurement": "residual activity", "setting": "LTK (human)", "value": 93, "unit": "%"}, {"measurement": "residual activity", "setting": "PAK2 (human)", "value": 99.7, "unit": "%"}, {"measurement": "residual activity", "setting": "CLK3 (human)", "value": 95.9, "unit": "%"}, {"measurement": "residual activity", "setting": "FES (human)", "value": 102, "unit": "%"}, {"measurement": "residual activity", "setting": "TGFBR2 (human)", "value": 132, "unit": "%"}, {"measurement": "residual activity", "setting": "MAP4K4 (human)", "value": 87.6, "unit": "%"}, {"measurement": "residual activity", "setting": "WNK3 (human)", "value": 97.3, "unit": "%"}, {"measurement": "residual activity", "setting": "HCK (human)", "value": 96.4, "unit": "%"}, {"measurement": "residual activity", "setting": "SRMS (human)", "value": 106, "unit": "%"}, {"measurement": "residual activity", "setting": "PRKCB1 (human)", "value": 99.4, "unit": "%"}, {"measurement": "residual activity", "setting": "CAMK2B (human)", "value": 92.4, "unit": "%"}, {"measurement": "residual activity", "setting": "DDR2 (human)", "value": 103, "unit": "%"}, {"measurement": "residual activity", "setting": "PIM2 (human)", "value": 104, "unit": "%"}, {"measurement": "residual activity", "setting": "PRKX (human)", "value": 54.2, "unit": "%"}, {"measurement": "residual activity", "setting": "STK10 (human)", "value": 42, "unit": "%"}]}
{"smiles": "N#C/C(=C\\c1ccc(O)c(O)c1)C(=O)NCc1ccccc1", "values": [{"measurement": "residual activity", "setting": "EPHA8 (human)", "value": 92, "unit": "%"}, {"measurement": "residual activity", "setting": "NUAK1 (human)", "value": 90, "unit": "%"}, {"measurement": "residual activity", "setting": "ACVR1 (human)", "value": 91.3, "unit": "%"}, {"measurement": "residual activity", "setting": "MELK (human)", "value": 100, "unit": "%"}, {"measurement": "residual activity", "setting": "CDK1 CCNA2 (human)", "value": 92.8, "unit": "%"}, {"measurement": "residual activity", "setting": "MAPK13 (human)", "value": 101, "unit": "%"}, {"measurement": "residual activity", "setting": "MAP3K2 (human)", "value": 99.8, "unit": "%"}, {"measurement": "residual activity", "setting": "[1]", "value": 127, "unit": "%"}, {"measurement": "residual activity", "setting": "ROS1 (human)", "value": 101, "unit": "%"}, {"measurement": "residual activity", "setting": "CSF1R (human)", "value": 100, "unit": "%"}, {"measurement": "residual activity", "setting": "EPHA4 (human)", "value": 99.5, "unit": "%"}, {"measurement": "residual activity", "setting": "MERTK (human)", "value": 89, "unit": "%"}, {"measurement": "residual activity", "setting": "DYRK4 (human)", "value": 106, "unit": "%"}, {"measurement": "residual activity", "setting": "CHEK2 (human)", "value": 97.5, "unit": "%"}, {"measurement": "residual activity", "setting": "EPHA2 (human)", "value": 105, "unit": "%"}, {"measurement": "residual activity", "setting": "PRKG2 (human)", "value": 98.6, "unit": "%"}, {"measurement": "residual activity", "setting": "PHKG1 (human)", "value": 92.6, "unit": "%"}, {"measurement": "residual activity", "setting": "MKNK2 (human)", "value": 87.9, "unit": "%"}, {"measurement": "residual activity", "setting": "PRKCI (human)", "value": 96.4, "unit": "%"}, {"measurement": "residual activity", "setting": "INSRR (human)", "value": 96.3, "unit": "%"}, {"measurement": "residual activity", "setting": "PLK1 (human)", "value": 97.3, "unit": "%"}, {"measurement": "residual activity", "setting": "MINK1 (human)", "value": 97.9, "unit": "%"}, {"measurement": "residual activity", "setting": "FGFR4 (human)", "value": 84.2, "unit": "%"}, {"measurement": "residual activity", "setting": "PLK3 (human)", "value": 96.1, "unit": "%"}, {"measurement": "residual activity", "setting": "HIPK1 (human)", "value": 101, "unit": "%"}, {"measurement": "residual activity", "setting": "MUSK (human)", "value": 97.9, "unit": "%"}, {"measurement": "residual activity", "setting": "LTK (human)", "value": 91.4, "unit": "%"}, {"measurement": "residual activity", "setting": "PAK2 (human)", "value": 76.8, "unit": "%"}, {"measurement": "residual activity", "setting": "CLK3 (human)", "value": 125, "unit": "%"}, {"measurement": "residual activity", "setting": "FES (human)", "value": 101, "unit": "%"}, {"measurement": "residual activity", "setting": "TGFBR2 (human)", "value": 111, "unit": "%"}, {"measurement": "residual activity", "setting": "WNK3 (human)", "value": 95, "unit": "%"}, {"measurement": "residual activity", "setting": "HCK (human)", "value": 97.5, "unit": "%"}, {"measurement": "residual activity", "setting": "SRMS (human)", "value": 104, "unit": "%"}, {"measurement": "residual activity", "setting": "PRKCB1 (human)", "value": 91, "unit": "%"}, {"measurement": "residual activity", "setting": "CAMK2B (human)", "value": 102, "unit": "%"}, {"measurement": "residual activity", "setting": "DDR2 (human)", "value": 97.2, "unit": "%"}, {"measurement": "residual activity", "setting": "PIM2 (human)", "value": 97.1, "unit": "%"}, {"measurement": "residual activity", "setting": "PRKX (human)", "value": 99.6, "unit": "%"}, {"measurement": "residual activity", "setting": "STK10 (human)", "value": 89.6, "unit": "%"}, {"measurement": "residual activity", "setting": "GSK3B (human)", "value": 106, "unit": "%"}]}
